Test results: patent US9125913B2, “Bcl-2-selective apoptosis-inducing agents for the treatment of cancer and immune diseases” (AbbVie Inc., priority 2008, dated 2015)

Key:
GST-Bcl-2 = assay: TR-FRET binding assay, Bcl-2; settings: TR-FRET Ki values
Procedure, shortened: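 Ki values come from Wang's competitive-binding equation applied to TR-FRET signal (excitation 340/35 nm; emission 520/525 nm F-Bak peptide, 495/510 nm Tb antibody). Protein, probe and antibody incubated with compound 3 h at room temperature; dilution series began at 50 μM as 2× stock in 10% DMSO.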

FL5.12/Bcl-2 cells = assay: FL5.12/Bcl-2 cell viability assay; assay type: cell-based, murine; settings: ratio of canine platelet EC50 to FL5.12/Bcl-2 EC50
Excerpt: FL5.12 is an IL-3 dependent prolymphocytic murine cell line that undergoes apoptosis upon IL-3 withdrawal as a result of the upregulation of pro-apoptotic Bcl-2 proteins such as Bim and Puma. Stable overexpression of anti-apoptotic Bcl-2 protein (FL5.12/Bcl-2) protects against apoptosis induced by IL-3 withdrawal by sequestration of Bim and Puma. […] The ability of compounds to kill FL5.12/Bcl-2 cells upon IL-3 withdrawal is a direct measure of the compounds' ability to inhibit anti-apoptotic Bcl-2 protein function.
Wild type FL5.12/Bcl-2 overexpressing stable transfectants were cultured in RPMI-1640 supplemented with 2 mM L-glutamine, 10% FBS, 1 mM sodium pyruvate, 2 mM HEPES, 1% penicillin/streptomycin (Invitrogen), 57 μM β-ME, and 10% WEHI-3B conditioned medium (source of IL-3) and maintained at 37° C. containing 5% CO2. 1×10^6 cells/ml were washed 1×PBS and resuspended in medium not supplemented with 10% WEHI-3B for 48 hrs prior to cytotoxicity assays. Cells were then treated for an additional 24 hrs in the presence of various concentrations of the indicated compounds. Cell viability was assessed by CellTitre Glo assay (Promega Corp.) according to the manufacturer's recommendations.

## CC1(C)CCC(CN2CCN(c3ccc(C(=O)NS(=O)(=O)c4ccc(NCCCN5CCOCC5)c([N+](=O)[O-])c4)c(Oc4ccccc4)c3)CC2)=C(c2ccc(Cl)cc2)C1 [Example 18, 4-(4-{[2-(4-chlorophenyl)-4,4-dimethylcyclohex-1-en-1-yl]methyl}piperazin-1-yl)-N-({4-[(3-morpholin-4-ylpropyl)amino]-3-nitrophenyl}sulfonyl)-2-phenoxybenzamide]
GST-Bcl-2
  Binding selectivity ratio (Bcl-XL Ki/Bcl-2 Ki): 34.2
FL5.12/Bcl-2 cells
  Selectivity Ratio (Platelet EC50/FL5.12/Bcl-2 EC50): 241

## CN1CCC(Nc2ccc(S(=O)(=O)NC(=O)c3ccc(N4CCN(CC5=C(c6ccc(Cl)cc6)CC(C)(C)CC5)CC4)cc3Oc3ccc4[nH]ncc4c3)cc2[N+](=O)[O-])CC1 [Example 21, 4-(4-{[2-(4-chlorophenyl)-4,4-dimethylcyclohex-1-en-1-yl]methyl}piperazin-1-yl)-2-(1H-indazol-5-yloxy)-N-({4-[(1-methylpiperidin-4-yl)amino]-3-nitrophenyl}sulfonyl)benzamide]
GST-Bcl-2
  Binding selectivity ratio (Bcl-XL Ki/Bcl-2 Ki): 35.1
FL5.12/Bcl-2 cells
  Selectivity Ratio (Platelet EC50/FL5.12/Bcl-2 EC50): >49

## CC1(C)CCC(CN2CCN(c3ccc(C(=O)NS(=O)(=O)c4ccc(NCCCN5CCOCC5)c([N+](=O)[O-])c4)c(Oc4ccc5c(c4)CCCN5)c3)CC2)=C(c2ccc(Cl)cc2)C1 [Example 22, 4-(4-{[2-(4-chlorophenyl)-4,4-dimethylcyclohex-1-en-1-yl]methyl}piperazin-1-yl)-N-({4-[(3-morpholin-4-ylpropyl)amino]-3-nitrophenyl}sulfonyl)-2-(1,2,3,4-tetrahydroquinolin-6-yloxy)benzamide]
GST-Bcl-2
  Binding selectivity ratio (Bcl-XL Ki/Bcl-2 Ki): 20.2
FL5.12/Bcl-2 cells
  Selectivity Ratio (Platelet EC50/FL5.12/Bcl-2 EC50): >61

## CN1CCC(Nc2ccc(S(=O)(=O)NC(=O)c3ccc(N4CCN(CC5=C(c6ccc(Cl)cc6)CC(C)(C)CC5)CC4)cc3Oc3ccc4c(c3)CCCN4)cc2[N+](=O)[O-])CC1 [Example 23, 4-(4-{[2-(4-chlorophenyl)-4,4-dimethylcyclohex-1-en-1-yl]methyl}piperazin-1-yl)-N-({4-[(1-methylpiperidin-4-yl)amino]-3-nitrophenyl}sulfonyl)-2-(1,2,3,4-tetrahydroquinolin-6-yloxy)benzamide]
GST-Bcl-2
  Binding selectivity ratio (Bcl-XL Ki/Bcl-2 Ki): 25.3
FL5.12/Bcl-2 cells
  Selectivity Ratio (Platelet EC50/FL5.12/Bcl-2 EC50): >35

## O=C(NS(=O)(=O)c1ccc(NCC2CCOCC2)c([N+](=O)[O-])c1)c1ccc(N2CCN(Cc3cc(CN4CCCC4)ccc3-c3ccc(Cl)cc3)CC2)cc1Oc1cccc2[nH]ccc12 [Example 24, 4-(4-{[4′-chloro-4-(pyrrolidin-1-ylmethyl)-1,1′-biphenyl-2-yl]methyl}piperazin-1-yl)-2-(1H-indol-4-yloxy)-N-({3-nitro-4-[(tetrahydro-2H-pyran-4-ylmethyl)amino]phenyl}sulfonyl)benzamide]
GST-Bcl-2
  Binding selectivity ratio (Bcl-XL Ki/Bcl-2 Ki): >3402.1
FL5.12/Bcl-2 cells
  Selectivity Ratio (Platelet EC50/FL5.12/Bcl-2 EC50): >906

## O=C(NS(=O)(=O)c1ccc(NCC2CCOCC2)c([N+](=O)[O-])c1)c1ccc(N2CCN(Cc3cc(CCN4CCCC4)ccc3-c3ccc(Cl)cc3)CC2)cc1Oc1cccc2[nH]ccc12 [Example 25, 4-(4-{[4′-chloro-4-(2-pyrrolidin-1-ylethyl)-1,1′-biphenyl-2-yl]methyl}piperazin-1-yl)-2-(1H-indol-4-yloxy)-N-({3-nitro-4-[(tetrahydro-2H-pyran-4-ylmethyl)amino]phenyl}sulfonyl)benzamide]
GST-Bcl-2
  Binding selectivity ratio (Bcl-XL Ki/Bcl-2 Ki): 4103.8
FL5.12/Bcl-2 cells
  Selectivity Ratio (Platelet EC50/FL5.12/Bcl-2 EC50): >1020

## CC1(C)CCC(CN2CCN(c3ccc(C(=O)NS(=O)(=O)c4ccc(NC5CCN(C6CCCC6)CC5)c([N+](=O)[O-])c4)c(Oc4ccc5[nH]ccc5c4)c3)CC2)=C(c2ccc(Cl)cc2)C1 [Example 26, 4-(4-{[2-(4-chlorophenyl)-4,4-dimethylcyclohex-1-en-1-yl]methyl}piperazin-1-yl)-N-({4-[(1-cyclopentylpiperidin-4-yl)amino]-3-nitrophenyl}sulfonyl)-2-(1H-indol-5-yloxy)benzamide]
GST-Bcl-2
  Binding selectivity ratio (Bcl-XL Ki/Bcl-2 Ki): >4714.3
FL5.12/Bcl-2 cells
  Selectivity Ratio (Platelet EC50/FL5.12/Bcl-2 EC50): >1429

## O=C(NS(=O)(=O)c1ccc(NCC2CCOCC2)c([N+](=O)[O-])c1)c1ccc(N2CCN(Cc3ccccc3-c3ccc(Cl)cc3)CC2)cc1Oc1ccc2[nH]ccc2c1 [Example 40, 4-{4-[(4′-chloro-1,1′-biphenyl-2-yl)methyl]piperazin-1-yl}-2-(1H-indol-5-yloxy)-N-({3-nitro-4-[(tetrahydro-2H-pyran-4-ylmethyl)amino]phenyl}sulfonyl)benzamide]
GST-Bcl-2
  Binding selectivity ratio (Bcl-XL Ki/Bcl-2 Ki): >1236.0
FL5.12/Bcl-2 cells
  Selectivity Ratio (Platelet EC50/FL5.12/Bcl-2 EC50): >303

## O=C(NS(=O)(=O)c1ccc(NCC2CCOCC2)c([N+](=O)[O-])c1)c1ccc(N2CCN(Cc3ccccc3-c3ccc(Cl)cc3)CC2)cc1Oc1cccc2[nH]ccc12 [Example 45, 4-{4-[(4′-chloro-1,1′-biphenyl-2-yl)methyl]piperazin-1-yl}-2-(1H-indol-4-yloxy)-N-({3-nitro-4-[(tetrahydro-2H-pyran-4-ylmethyl)amino]phenyl}sulfonyl)benzamide]
GST-Bcl-2
  Binding selectivity ratio (Bcl-XL Ki/Bcl-2 Ki): >797.1
FL5.12/Bcl-2 cells
  Selectivity Ratio (Platelet EC50/FL5.12/Bcl-2 EC50): >360

## CN(C)CCCOc1ccc(S(=O)(=O)NC(=O)c2ccc(N3CCN(CC4=C(c5ccc(Cl)cc5)CC(C)(C)CC4)CC3)cc2Oc2cccc3[nH]ccc23)cc1[N+](=O)[O-] [Example 106, 4-(4-{[2-(4-chlorophenyl)-4,4-dimethylcyclohex-1-en-1-yl]methyl}piperazin-1-yl)-N-({4-[3-(dimethylamino)propoxy]-3-nitrophenyl}sulfonyl)-2-(1H-indol-4-yloxy)benzamide]
FL5.12/Bcl-2 cells
  Selectivity Ratio (Platelet EC50/FL5.12/Bcl-2 EC50): 1657

## CC1(C)CCC(CN2CCN(c3ccc(C(=O)NS(=O)(=O)c4ccc(N[C@H]5CC[C@H](N6CCOCC6)CC5)c([N+](=O)[O-])c4)c(Oc4ccc5[nH]ccc5c4)c3)CC2)=C(c2ccc(Cl)cc2)C1 [Example 178, Trans-4-(4-{[2-(4-chlorophenyl)-4,4-dimethylcyclohex-1-en-1-yl]methyl}piperazin-1-yl)-2-(1H-indol-5-yloxy)-N-({4-[(4-morpholin-4-ylcyclohexyl)amino]-3-nitrophenyl}sulfonyl)benzamide]
GST-Bcl-2
  Binding selectivity ratio (Bcl-XL Ki/Bcl-2 Ki): >2915.8

## COCCNc1ccc(S(=O)(=O)NC(=O)c2ccc(N3CCN(CC4=C(c5ccc(Cl)cc5)CC(C)(C)CC4)CC3)cc2Oc2ccc3[nH]ccc3c2)cc1[N+](=O)[O-] [Example 179, 4-(4-{[2-(4-chlorophenyl)-4,4-dimethylcyclohex-1-en-1-yl]methyl}piperazin-1-yl)-2-(1H-indol-5-yloxy)-N-({4-[(2-methoxyethyl)amino]-3-nitrophenyl}sulfonyl)benzamide]
GST-Bcl-2
  Binding selectivity ratio (Bcl-XL Ki/Bcl-2 Ki): >3642.4

## CN(C)CC(=O)N1CCO[C@@H](COc2ncc(S(=O)(=O)NC(=O)c3ccc(N4CCN(CC5=C(c6ccc(Cl)cc6)CC(C)(C)CC5)CC4)cc3Oc3cccc4[nH]ncc34)cc2Cl)C1 [compound 426, N-[(5-chloro-6-{[(2R)-4-(N,N-dimethylglycyl)morpholin-2-yl]methoxy}pyridin-3-yl)sulfonyl]-4-(4-{[2-(4-chlorophenyl)-4,4-dimethylcyclohex-1-en-1-yl]methyl}piperazin-1-yl)-2-(1H-indazol-4-yloxy)benzamide]
GST-Bcl-2
  Binding selectivity ratio (Bcl-XL Ki/Bcl-2 Ki): 604.2
